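Five compound concentrations were applied to cells in 96-well plates for 48 hours; endpoints were derived by simple linear interpolation of the resulting dose-response curve. TGI marks complete inhibition of growth.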
Experiments:
Experiment in all cases: inhibition of tumour cell growth, NCI panel, 48 h
786-0 renal = test system: 786-0 renal
A498 renal = test system: A498 renal
A549 NSCLC = test system: A549 NSCLC
ACHN renal = test system: ACHN renal
CAKI-1 renal = test system: CAKI-1 renal
CCRF-CEM leukemia = test system: CCRF-CEM leukemia
COLO 205 colon = test system: COLO 205 colon
DLD-1 colon = test system: DLD-1 colon
DMS 114 small cell lung = test system: DMS 114 small cell lung
DMS 273 small cell lung = test system: DMS 273 small cell lung
EKVX NSCLC = test system: EKVX NSCLC
HCC-2998 colon = test system: HCC-2998 colon
HCT-116 colon = test system: HCT-116 colon
HCT-15 colon = test system: HCT-15 colon
HL-60(TB) leukemia = test system: HL-60(TB) leukemia
HOP-18 NSCLC = test system: HOP-18 NSCLC
HOP-62 NSCLC = test system: HOP-62 NSCLC
HOP-92 NSCLC = test system: HOP-92 NSCLC
HT29 colon = test system: HT29 colon
IGROV1 ovarian = test system: IGROV1 ovarian
K-562 leukemia = test system: K-562 leukemia
KM12 colon = test system: KM12 colon
KM20L2 colon = test system: KM20L2 colon
LOX IMVI melanoma = test system: LOX IMVI melanoma
LXFL 529 NSCLC = test system: LXFL 529 NSCLC
M19-MEL melanoma = test system: M19-MEL melanoma
MALME-3M melanoma = test system: MALME-3M melanoma
MOLT-4 leukemia = test system: MOLT-4 leukemia
NCI-H226 lung = test system: NCI-H226 lung
NCI-H23 lung = test system: NCI-H23 lung
NCI-H460 lung = test system: NCI-H460 lung
NCI-H522 lung = test system: NCI-H522 lung
OVCAR-3 ovarian = test system: OVCAR-3 ovarian
OVCAR-4 ovarian = test system: OVCAR-4 ovarian
OVCAR-5 ovarian = test system: OVCAR-5 ovarian
OVCAR-8 ovarian = test system: OVCAR-8 ovarian
RPMI-8226 leukemia = test system: RPMI-8226 leukemia
RXF-631 renal = test system: RXF-631 renal
SF-268 CNS = test system: SF-268 CNS
SF-295 CNS = test system: SF-295 CNS
SF-539 CNS = test system: SF-539 CNS
SK-MEL-2 melanoma = test system: SK-MEL-2 melanoma
SK-MEL-28 melanoma = test system: SK-MEL-28 melanoma
SK-MEL-5 melanoma = test system: SK-MEL-5 melanoma
SK-OV-3 ovarian = test system: SK-OV-3 ovarian
SN12C renal = test system: SN12C renal
SNB-19 CNS = test system: SNB-19 CNS
SNB-75 CNS = test system: SNB-75 CNS
SNB-78 CNS = test system: SNB-78 CNS
SW-620 colon = test system: SW-620 colon
TK-10 renal = test system: TK-10 renal
U251 CNS = test system: U251 CNS
UACC-257 melanoma = test system: UACC-257 melanoma
UACC-62 melanoma = test system: UACC-62 melanoma
UO-31 renal = test system: UO-31 renal
XF 498 CNS = test system: XF 498 CNS

Measured: TGI

CN(C)c1[se]nc2c1c(=O)n(C)c(=O)n2C
> 100 µM: 786-0 renal | A498 renal | A549 NSCLC | ACHN renal | CAKI-1 renal | CCRF-CEM leukemia | COLO 205 colon | DLD-1 colon | DMS 114 small cell lung | DMS 273 small cell lung | EKVX NSCLC | HCC-2998 colon | HCT-116 colon | HCT-15 colon | HL-60(TB) leukemia | HOP-18 NSCLC | HOP-62 NSCLC | HOP-92 NSCLC | HT29 colon | IGROV1 ovarian | K-562 leukemia | KM12 colon | KM20L2 colon | LOX IMVI melanoma | LXFL 529 NSCLC | M19-MEL melanoma | MALME-3M melanoma | MOLT-4 leukemia | NCI-H226 lung | NCI-H23 lung | NCI-H460 lung | NCI-H522 lung | OVCAR-3 ovarian | OVCAR-4 ovarian | OVCAR-5 ovarian | OVCAR-8 ovarian | RPMI-8226 leukemia | RXF-631 renal | SF-268 CNS | SF-295 CNS | SF-539 CNS | SK-MEL-2 melanoma | SK-MEL-28 melanoma | SK-MEL-5 melanoma | SK-OV-3 ovarian | SN12C renal | SNB-19 CNS | SNB-75 CNS | SNB-78 CNS | SW-620 colon | TK-10 renal | U251 CNS | UACC-257 melanoma | UACC-62 melanoma | UO-31 renal | XF 498 CNS

From PubChem BioAssay (NCI)
